Common to all, as to assay: inhibition of tumour cell growth, NCI panel, 48 h
Experiment [1] concerns HOP-18.
For experiment [2], the system named is M19-MEL.
In experiment [3] the test system is DMS-114.
For experiment [4], the system named is DLD-1.
Experiment [5] has as its system MDA-MB-231.
The subject of experiment [6] is MDA-N.
Experiment [7] relates to LXFL 529.
Experiment [8] concerns RXF 631.

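Where inhibition never reached the appropriate level, the endpoint shown equals the highest concentration tested. Otherwise, values were interpolated linearly from a five-concentration, 48-hour dose response in 96-well plates. At the GI50, growth is halved.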 Activity calls are given as the source filed them. Cut-off read from the data, not from the text of the source: active = GI50 up to about 1.1 µM and inactive = higher.

Turning to `O=C(NC(Cc1ccc(I)cc1)C(=O)O)c1ccc(Br)cc1` (stereo not drawn), the GI50 in experiment [1] was > 100 µM (inactive); in experiment [2], > 82.2 µM (inactive); in experiment [3], 66.2 µM (inactive); in experiment [4], > 100 µM (inactive).
With `O=C(c1ccccc1)C1C(c2ccccc2)N1S(=O)(=O)c1ccccc1` (stereo not drawn), the GI50 in experiment [5] and in experiment [6] was > 100 µM (inactive) in each case.
`CCOC(=O)C(C(=O)OCC)c1cc(-c2cc3ccccc3o2)oc(=O)c1C#N`: the figures for the GI50 in experiment [1], in experiment [7] and in experiment [3] were 16 µM (inactive), 20.4 µM (inactive) and 26.7 µM (inactive), respectively.
In the case of `Nc1nnc2ccc(Cl)cc2[n+]1[O-]`, the GI50 in experiment [5] is 37.9 µM (inactive); in experiment [6], 37.6 µM (inactive).
For the compound `Cc1ccc(NC(=O)S(N)(c2ccc(C)cc2)[N+](=O)[O-])cc1` (stereo not drawn), the GI50 in experiment [5] and in experiment [6] was > 100 µM (inactive) throughout.
For `N#Cc1ccccc1NC(=O)C(=O)C(C(=O)c1ccccc1F)C1OC(=O)c2ccccc21` (stereo not drawn), the GI50 was 29.7 µM (inactive) in experiment [2], 31 µM (inactive) in experiment [7], 35.5 µM (inactive) in experiment [3] and 46.8 µM (inactive) in experiment [4].
As to `Cc1cccc(C(O)c2cccnc2)c1O` (stereo not drawn), the GI50 in experiment [5] and in experiment [6] was > 100 µM (inactive) in each case.
For the compound `CC(C)=CCC(OC(=O)C=C(C)C)c1cc(O)c2c(c1O)C(=O)C=CC2=O` (stereo not drawn), the GI50 in experiment [1] was 3.52 µM (inactive); in experiment [2], 0.621 µM (active); in experiment [3] it was 1.05 µM (active); in experiment [4] it was 0.279 µM (active).
With `Brc1ccccc1-c1ncc(-c2ccccc2)o1`, the GI50 is 38 µM (inactive) in experiment [5] and 31 µM (inactive) in experiment [6].
`CC1=CC[C@H](C)C(C)(C)C1/C=C/C(C)=C/CC[C@@]1(CO)[C@H](CCCO)/C(=C(/C)C=O)CC[C@]1(C)O` (stereo partly drawn): the GI50 in experiment [1] is 15.5 µM (inactive); in experiment [2], 17.2 µM (inactive); in experiment [7] it was 7.62 µM (inactive); in experiment [4], 3.53 µM (inactive).
For `O=C(O)C1CCC(=O)N1C(=O)COc1cc(Cl)c(Cl)cc1Cl` (stereo not drawn), the GI50 in experiment [2], in experiment [7], in experiment [3] and in experiment [8] was > 100 µM (inactive) in each case.

For the origin of these results see ChEMBL document CHEMBL1201862, “PubChem BioAssay data set” (2004).
